Publication PMC12300041, “Tricyclic Isatin Derivatives as Anti-Inflammatory Compounds with High Kinase Binding Affinity” (Molecules, 2025)

How the values were obtained:
Assay in all cases: KINOMEscan
Type in all cases: binding
ABL1 (F317I)-P = target: T1, ABL1 (F317I)-P (Homo sapiens, UniProt P00519, F317I)
T1 construct: purchased Eurofins DiscoverX KINOMEscan
How it was run: (§1)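 1 h RT binding → immobilized-ligand capture of free kinase → qPCR quantitation. Kd: 12 half-log points, max 33 μM.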

CAMK2B = target: T2, CAMK2B (Homo sapiens, UniProt Q13554)
T2 construct: purchased Eurofins DiscoverX KINOMEscan
T2 sequence (Q13554 whole entry): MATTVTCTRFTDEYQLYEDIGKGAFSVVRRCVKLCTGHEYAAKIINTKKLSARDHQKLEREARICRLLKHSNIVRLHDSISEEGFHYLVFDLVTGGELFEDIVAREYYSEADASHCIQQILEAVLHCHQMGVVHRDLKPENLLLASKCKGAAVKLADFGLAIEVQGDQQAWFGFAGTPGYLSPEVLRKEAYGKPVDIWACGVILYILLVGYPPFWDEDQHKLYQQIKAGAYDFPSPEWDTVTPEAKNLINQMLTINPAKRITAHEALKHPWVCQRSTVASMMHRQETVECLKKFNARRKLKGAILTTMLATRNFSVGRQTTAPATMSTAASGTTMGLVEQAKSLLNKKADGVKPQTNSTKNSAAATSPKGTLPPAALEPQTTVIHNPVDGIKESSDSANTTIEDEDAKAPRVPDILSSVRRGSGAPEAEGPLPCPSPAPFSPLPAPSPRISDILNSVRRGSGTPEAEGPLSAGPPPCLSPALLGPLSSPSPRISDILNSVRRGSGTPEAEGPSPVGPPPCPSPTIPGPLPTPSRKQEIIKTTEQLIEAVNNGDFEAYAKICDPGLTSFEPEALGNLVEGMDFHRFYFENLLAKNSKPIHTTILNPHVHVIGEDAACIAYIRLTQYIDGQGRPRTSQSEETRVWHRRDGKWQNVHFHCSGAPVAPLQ
How it was run: as §1

PAK7 = target: T3, PAK7 (Homo sapiens, UniProt Q9P286)
T3 construct: purchased Eurofins DiscoverX KINOMEscan
How it was run: as §1

ERK4 = target: T4, ERK4 (Homo sapiens, UniProt P31152)
T4 construct: purchased Eurofins DiscoverX KINOMEscan
How it was run: (§2)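 Compound and kinase were incubated at room temperature for 1 h, the free kinase fraction was captured with an immobilized affinity ligand, and capture was quantified by quantitative PCR; Kd values used a 12-point half-log series up to 33 μM.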

CASK = target: T5, CASK (Homo sapiens, UniProt O14936)
T5 construct: purchased Eurofins DiscoverX KINOMEscan
How it was run: as §1

STK16 = target: T6, STK16 (Homo sapiens, UniProt O75716)
T6 construct: purchased Eurofins DiscoverX KINOMEscan
How it was run: as §1

BUB1 = target: T7, BUB1 (Homo sapiens, UniProt O43683)
T7 construct: purchased Eurofins DiscoverX KINOMEscan
How it was run: as §2

PIK3CA (E542K) = target: T8, PIK3CA (E542K) (Homo sapiens, UniProt P42336, E542K)
T8 construct: purchased Eurofins DiscoverX KINOMEscan
How it was run: as §2

NEK5 = target: T9, NEK5 (Homo sapiens, UniProt Q6P3R8)
T9 construct: purchased Eurofins DiscoverX KINOMEscan
How it was run: as §1

PIK3CA (H1047Y) = target: T10, PIK3CA (H1047Y) (Homo sapiens, UniProt P42336, H1047Y)
T10 construct: purchased Eurofins DiscoverX KINOMEscan
How it was run: as §1

STK36 = target: T11, STK36 (Homo sapiens, UniProt Q9NRP7)
T11 construct: purchased Eurofins DiscoverX KINOMEscan
How it was run: as §2

TNK2 = target: T12, TNK2 (Homo sapiens, UniProt Q07912)
T12 construct: purchased Eurofins DiscoverX KINOMEscan
T12 sequence (Q07912 whole entry): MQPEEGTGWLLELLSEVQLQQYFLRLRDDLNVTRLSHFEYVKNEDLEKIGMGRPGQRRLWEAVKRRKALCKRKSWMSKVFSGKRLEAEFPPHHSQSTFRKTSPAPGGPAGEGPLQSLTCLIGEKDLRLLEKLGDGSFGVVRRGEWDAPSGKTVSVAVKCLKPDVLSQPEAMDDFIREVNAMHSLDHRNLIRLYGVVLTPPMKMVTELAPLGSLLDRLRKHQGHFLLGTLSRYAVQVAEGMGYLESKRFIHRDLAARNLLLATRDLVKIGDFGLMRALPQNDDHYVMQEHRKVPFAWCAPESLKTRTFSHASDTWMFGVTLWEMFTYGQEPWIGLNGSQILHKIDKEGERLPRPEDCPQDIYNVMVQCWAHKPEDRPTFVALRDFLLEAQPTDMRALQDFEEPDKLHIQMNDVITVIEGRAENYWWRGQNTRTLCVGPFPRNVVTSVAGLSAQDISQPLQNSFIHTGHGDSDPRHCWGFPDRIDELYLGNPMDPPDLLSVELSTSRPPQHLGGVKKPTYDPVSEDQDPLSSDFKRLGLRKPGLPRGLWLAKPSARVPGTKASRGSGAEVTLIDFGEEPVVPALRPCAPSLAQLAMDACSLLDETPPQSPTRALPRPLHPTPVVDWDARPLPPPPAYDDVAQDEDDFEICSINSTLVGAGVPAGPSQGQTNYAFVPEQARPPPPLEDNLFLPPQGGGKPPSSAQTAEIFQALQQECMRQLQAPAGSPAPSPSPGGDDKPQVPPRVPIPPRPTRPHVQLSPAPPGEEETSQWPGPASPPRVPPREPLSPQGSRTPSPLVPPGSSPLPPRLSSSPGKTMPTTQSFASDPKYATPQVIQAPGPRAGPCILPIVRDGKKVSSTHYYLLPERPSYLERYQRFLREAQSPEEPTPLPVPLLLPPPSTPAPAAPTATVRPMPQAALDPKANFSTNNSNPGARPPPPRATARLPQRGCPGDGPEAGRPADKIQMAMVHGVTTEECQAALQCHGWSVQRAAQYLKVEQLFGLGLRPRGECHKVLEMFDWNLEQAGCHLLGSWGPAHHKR
How it was run: as §1

PCTK1 = target: T13, PCTK1 (Homo sapiens, UniProt Q00536)
T13 construct: purchased Eurofins DiscoverX KINOMEscan
How it was run: as §1

DDR2 = target: T14, DDR2 (Homo sapiens, UniProt Q16832)
T14 construct: purchased Eurofins DiscoverX KINOMEscan
How it was run: as §1

TRKA = target: T15, TRKA (Homo sapiens, UniProt P04629)
T15 construct: purchased Eurofins DiscoverX KINOMEscan
How it was run: as §2

MYLK = target: T16, MYLK (Homo sapiens, UniProt Q15746)
T16 construct: purchased Eurofins DiscoverX KINOMEscan
How it was run: as §1

GRK1 = target: T17, GRK1 (Homo sapiens, UniProt Q15835)
T17 construct: purchased Eurofins DiscoverX KINOMEscan
How it was run: as §1

BMX = target: T18, BMX (Homo sapiens, UniProt P51813)
T18 construct: purchased Eurofins DiscoverX KINOMEscan
How it was run: as §1

VRK2 = target: T19, VRK2 (Homo sapiens, UniProt Q86Y07)
T19 construct: purchased Eurofins DiscoverX KINOMEscan
How it was run: as §1

RIPK2 = target: T20, RIPK2 (Homo sapiens, UniProt O43353)
T20 construct: purchased Eurofins DiscoverX KINOMEscan
How it was run: as §2

ROCK1 = target: T21, ROCK1 (Homo sapiens, UniProt Q13464)
T21 construct: purchased Eurofins DiscoverX KINOMEscan
T21 sequence (Q13464 whole entry): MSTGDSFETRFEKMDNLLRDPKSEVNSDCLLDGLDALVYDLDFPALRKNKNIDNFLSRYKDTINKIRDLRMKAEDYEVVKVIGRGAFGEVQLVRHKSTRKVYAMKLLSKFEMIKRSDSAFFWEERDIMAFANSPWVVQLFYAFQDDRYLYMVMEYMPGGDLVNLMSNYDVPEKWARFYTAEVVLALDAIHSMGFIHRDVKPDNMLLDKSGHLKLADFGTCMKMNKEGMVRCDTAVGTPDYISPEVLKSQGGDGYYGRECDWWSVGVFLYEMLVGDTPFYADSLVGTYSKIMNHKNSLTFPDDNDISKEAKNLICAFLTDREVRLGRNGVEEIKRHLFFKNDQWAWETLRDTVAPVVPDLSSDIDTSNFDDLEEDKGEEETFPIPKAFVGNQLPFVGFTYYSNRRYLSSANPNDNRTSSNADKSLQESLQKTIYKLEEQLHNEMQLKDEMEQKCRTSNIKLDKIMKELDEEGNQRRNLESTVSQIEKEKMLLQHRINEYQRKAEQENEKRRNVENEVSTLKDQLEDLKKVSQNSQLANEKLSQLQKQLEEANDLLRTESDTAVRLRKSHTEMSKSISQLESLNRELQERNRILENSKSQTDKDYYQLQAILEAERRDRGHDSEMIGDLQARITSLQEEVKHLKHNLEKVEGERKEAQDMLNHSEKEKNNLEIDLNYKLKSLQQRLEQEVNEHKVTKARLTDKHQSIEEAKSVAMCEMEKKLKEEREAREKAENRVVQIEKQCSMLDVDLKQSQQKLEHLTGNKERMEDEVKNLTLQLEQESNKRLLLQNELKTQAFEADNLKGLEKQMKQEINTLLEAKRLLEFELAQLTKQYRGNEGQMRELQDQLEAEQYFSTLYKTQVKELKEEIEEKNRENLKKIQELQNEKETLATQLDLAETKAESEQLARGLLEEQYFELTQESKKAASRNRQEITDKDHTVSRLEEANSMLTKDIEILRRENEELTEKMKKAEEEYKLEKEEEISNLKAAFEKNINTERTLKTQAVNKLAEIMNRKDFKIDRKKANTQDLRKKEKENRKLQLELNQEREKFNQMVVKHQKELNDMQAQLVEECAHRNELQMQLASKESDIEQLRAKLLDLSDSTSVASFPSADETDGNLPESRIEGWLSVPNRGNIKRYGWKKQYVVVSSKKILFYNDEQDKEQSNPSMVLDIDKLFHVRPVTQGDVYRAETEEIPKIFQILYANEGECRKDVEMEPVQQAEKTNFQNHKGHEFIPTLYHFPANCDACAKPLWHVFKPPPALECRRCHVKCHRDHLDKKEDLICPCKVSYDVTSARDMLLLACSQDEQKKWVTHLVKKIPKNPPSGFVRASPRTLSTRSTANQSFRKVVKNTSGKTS
How it was run: as §1

SGK = target: T22, SGK (Homo sapiens, UniProt O00141)
T22 construct: purchased Eurofins DiscoverX KINOMEscan
How it was run: as §1

CDC2L2 = target: T23, CDC2L2 (Homo sapiens, UniProt Q9UQ88)
T23 construct: purchased Eurofins DiscoverX KINOMEscan
How it was run: as §1

NIM1 = target: T24, NIM1 (Homo sapiens, UniProt Q8IY84)
T24 construct: purchased Eurofins DiscoverX KINOMEscan
How it was run: as §1

MST1 = target: T25, MST1 (Homo sapiens, UniProt Q13043)
T25 construct: purchased Eurofins DiscoverX KINOMEscan
How it was run: as §1

PIK3C2G = target: T26, PIK3C2G (Homo sapiens, UniProt O75747)
T26 construct: purchased Eurofins DiscoverX KINOMEscan
How it was run: as §1

ERBB4 = target: T27, ERBB4 (Homo sapiens, UniProt Q15303)
T27 construct: purchased Eurofins DiscoverX KINOMEscan
How it was run: as §2

CLK3 = target: T28, CLK3 (Homo sapiens, UniProt P49761)
T28 construct: purchased Eurofins DiscoverX KINOMEscan
How it was run: as §1

WNK3 = target: T29, WNK3 (Homo sapiens, UniProt Q9BYP7)
T29 construct: purchased Eurofins DiscoverX KINOMEscan
How it was run: as §1

MAP3K3 = target: T30, MAP3K3 (Homo sapiens, UniProt Q99759)
T30 construct: purchased Eurofins DiscoverX KINOMEscan
How it was run: as §1

MARK1 = target: T31, MARK1 (Homo sapiens, UniProt Q9P0L2)
T31 construct: purchased Eurofins DiscoverX KINOMEscan
How it was run: as §1

FGFR3 = target: T32, FGFR3 (Homo sapiens, UniProt P22607)
T32 construct: purchased Eurofins DiscoverX KINOMEscan
How it was run: as §2

DCAMKL1 = target: T33, DCAMKL1 (Homo sapiens, UniProt O15075)
T33 construct: purchased Eurofins DiscoverX KINOMEscan
How it was run: as §1

YES = target: T34, YES (Homo sapiens, UniProt P07947)
T34 construct: purchased Eurofins DiscoverX KINOMEscan
How it was run: as §1

TESK1 = target: T35, TESK1 (Homo sapiens, UniProt Q15569)
T35 construct: purchased Eurofins DiscoverX KINOMEscan
How it was run: as §2

[1] = target: T36, RSK4 (Kin. Dom.1-N-term.) (Homo sapiens, UniProt Q9UK32)
T36 construct: RSK4 (Kin. Dom.1-N-term.); purchased Eurofins DiscoverX KINOMEscan
How it was run: as §2

TBK1 = target: T37, TBK1 (Homo sapiens, UniProt Q9UHD2)
T37 construct: purchased Eurofins DiscoverX KINOMEscan
T37 sequence (Q9UHD2 whole entry): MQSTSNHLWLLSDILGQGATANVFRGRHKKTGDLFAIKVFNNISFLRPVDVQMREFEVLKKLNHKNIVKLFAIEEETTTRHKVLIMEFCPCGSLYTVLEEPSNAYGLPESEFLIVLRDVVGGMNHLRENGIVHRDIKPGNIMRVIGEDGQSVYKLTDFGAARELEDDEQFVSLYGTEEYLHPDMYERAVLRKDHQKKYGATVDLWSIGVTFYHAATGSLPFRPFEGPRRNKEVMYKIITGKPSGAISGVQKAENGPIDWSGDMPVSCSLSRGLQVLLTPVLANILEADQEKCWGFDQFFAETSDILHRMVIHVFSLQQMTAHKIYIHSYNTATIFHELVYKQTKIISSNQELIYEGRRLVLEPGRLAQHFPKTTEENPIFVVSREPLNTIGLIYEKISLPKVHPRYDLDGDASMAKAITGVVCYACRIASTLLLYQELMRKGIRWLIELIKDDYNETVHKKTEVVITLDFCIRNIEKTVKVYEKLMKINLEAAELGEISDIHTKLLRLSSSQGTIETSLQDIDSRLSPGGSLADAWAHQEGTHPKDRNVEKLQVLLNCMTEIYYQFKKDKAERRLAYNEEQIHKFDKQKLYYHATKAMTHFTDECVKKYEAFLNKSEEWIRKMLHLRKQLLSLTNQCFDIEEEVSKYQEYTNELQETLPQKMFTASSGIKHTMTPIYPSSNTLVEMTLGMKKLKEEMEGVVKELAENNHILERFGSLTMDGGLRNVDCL
How it was run: as §1

MYO3A = target: T38, MYO3A (Homo sapiens, UniProt Q8NEV4)
T38 construct: purchased Eurofins DiscoverX KINOMEscan
How it was run: as §1

MARK2 = target: T39, MARK2 (Homo sapiens, UniProt Q7KZI7)
T39 construct: purchased Eurofins DiscoverX KINOMEscan
How it was run: as §1

T1 sequence (P00519 whole entry F317I): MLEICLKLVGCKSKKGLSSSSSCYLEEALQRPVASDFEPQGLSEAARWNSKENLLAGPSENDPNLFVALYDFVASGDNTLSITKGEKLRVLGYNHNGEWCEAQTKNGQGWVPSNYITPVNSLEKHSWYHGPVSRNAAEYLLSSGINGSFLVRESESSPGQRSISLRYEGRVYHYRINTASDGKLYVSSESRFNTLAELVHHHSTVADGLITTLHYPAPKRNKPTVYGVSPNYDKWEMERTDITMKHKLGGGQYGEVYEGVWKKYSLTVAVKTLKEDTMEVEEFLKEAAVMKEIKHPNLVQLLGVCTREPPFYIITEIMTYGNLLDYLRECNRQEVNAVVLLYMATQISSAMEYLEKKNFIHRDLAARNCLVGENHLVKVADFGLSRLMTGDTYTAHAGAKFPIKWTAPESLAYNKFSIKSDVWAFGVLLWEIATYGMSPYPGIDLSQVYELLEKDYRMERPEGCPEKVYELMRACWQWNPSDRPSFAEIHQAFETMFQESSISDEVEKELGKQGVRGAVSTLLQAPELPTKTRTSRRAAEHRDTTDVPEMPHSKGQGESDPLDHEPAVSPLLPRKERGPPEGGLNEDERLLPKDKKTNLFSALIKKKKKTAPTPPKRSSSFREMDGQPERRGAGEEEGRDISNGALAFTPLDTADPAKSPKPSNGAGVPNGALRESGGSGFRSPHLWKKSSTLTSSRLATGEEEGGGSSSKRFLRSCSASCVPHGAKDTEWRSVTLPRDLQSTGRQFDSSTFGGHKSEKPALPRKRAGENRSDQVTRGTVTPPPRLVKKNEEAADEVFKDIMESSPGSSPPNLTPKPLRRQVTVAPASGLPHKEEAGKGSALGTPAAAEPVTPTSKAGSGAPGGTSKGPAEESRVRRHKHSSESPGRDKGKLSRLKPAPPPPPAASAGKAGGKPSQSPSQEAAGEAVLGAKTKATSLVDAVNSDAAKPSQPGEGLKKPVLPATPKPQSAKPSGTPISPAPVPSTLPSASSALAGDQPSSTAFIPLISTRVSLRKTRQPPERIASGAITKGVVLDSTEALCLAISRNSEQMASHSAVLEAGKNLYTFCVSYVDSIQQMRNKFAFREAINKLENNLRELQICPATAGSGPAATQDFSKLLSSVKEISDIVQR

In the case of `O=C1Nc2c(cc([N+](=O)[O-])c3c2CCCC3)C1=NO` [Compound 5d, 3-(Hydroxyimino)-5-nitro-1,3,6,7,8,9-hexahydro-2H-benzo[g]indol-2-one], the inhibition at 10 µM (ABL1 (F317I)-P; first of two lines printed ABL1 (F317I)-P) is reported as 7%, the inhibition at 10 µM (ABL1 (F317I)-P; second of two lines printed ABL1 (F317I)-P) is reported as 0% and the inhibition at 10 µM (CAMK2B) is reported as 70%. It also gave an inhibition at 10 µM (PAK7) of 55%, an inhibition at 10 µM (ERK4) of 0% and an inhibition at 10 µM (CASK) of 2%. For the same molecule, the inhibition at 10 µM (STK16) was 72%, the inhibition at 10 µM (BUB1) was 95.6% and the inhibition at 10 µM (PIK3CA (E542K)) was 43%. For the same molecule, the inhibition at 10 µM (NEK5) was 7%, the inhibition at 10 µM (PIK3CA (H1047Y)) was 36% and the inhibition at 10 µM (STK36) was 10%. The inhibition at 10 µM (TNK2) was 2%, the inhibition at 10 µM (PCTK1) was 5% and the inhibition at 10 µM (DDR2) was 0%. It also gave an inhibition at 10 µM (TRKA) of 0%, an inhibition at 10 µM (MYLK) of 93.9% and an inhibition at 10 µM (GRK1) of 67%. For the same molecule, the inhibition at 10 µM (BMX) was 13%, the inhibition at 10 µM (VRK2) was 0% and the inhibition at 10 µM (RIPK2) was 0%. For the same molecule, the inhibition at 10 µM (ROCK1) was 61%, the inhibition at 10 µM (SGK) was 91.1% and the inhibition at 10 µM (CDC2L2) was 0%. The inhibition at 10 µM (NIM1) was 52%, the inhibition at 10 µM (MST1) was 32% and the inhibition at 10 µM (PIK3C2G) was 43%. The inhibition at 10 µM (ERBB4) was 4%, the inhibition at 10 µM (CLK3) was 19% and the inhibition at 10 µM (WNK3) was 28%. The inhibition at 10 µM (MAP3K3) was 68%, the inhibition at 10 µM (MARK1) was 24% and the inhibition at 10 µM (FGFR3) was 14%. For the same molecule, the inhibition at 10 µM (DCAMKL1) was 29%, the inhibition at 10 µM (YES) was 26% and the inhibition at 10 µM (TESK1) was 9%. It also gave an inhibition at 10 µM [1] of 77%, an inhibition at 10 µM (TBK1) of 46% and an inhibition at 10 µM (MYO3A) of 51%. For the same molecule, the inhibition at 10 µM (MARK2) was 36%.
